How the values were obtained:
[1] = molecular target: T1, human cloned CHRM4 receptor (Homo sapiens, UniProt P08173); test: CHRM4 Ca++ Flux Assay (M4_CHO cells, agonist mode); assay type: cell-based; conditions: for M4 FDSS PA %: Percent Activity (PA); for EC50: geometric mean if tested more than once, read-out: M4 FDSS EC50
T1 construct: expressed in transfected cells; host or cells: CHO-K1 (M4_CHO)
T1 sequence (P08173 1-479): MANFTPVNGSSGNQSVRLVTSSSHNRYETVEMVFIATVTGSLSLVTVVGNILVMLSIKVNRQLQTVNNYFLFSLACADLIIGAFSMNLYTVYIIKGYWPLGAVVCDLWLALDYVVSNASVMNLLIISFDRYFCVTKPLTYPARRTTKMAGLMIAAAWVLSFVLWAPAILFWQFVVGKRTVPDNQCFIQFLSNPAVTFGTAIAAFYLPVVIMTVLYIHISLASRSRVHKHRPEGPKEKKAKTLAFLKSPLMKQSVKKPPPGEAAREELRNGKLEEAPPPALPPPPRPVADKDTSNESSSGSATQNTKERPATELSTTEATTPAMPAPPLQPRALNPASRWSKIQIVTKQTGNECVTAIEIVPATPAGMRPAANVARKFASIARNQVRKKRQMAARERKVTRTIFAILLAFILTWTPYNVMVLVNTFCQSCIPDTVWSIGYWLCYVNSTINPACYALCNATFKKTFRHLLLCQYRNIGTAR
Protocol: (§1) The above examples were characterized by measuring the intracellular mobilization of Ca^++ ions caused by signaling events mediated by the receptor. The Intra-cellular Calcium flux levels were captured by the highly sensitive Ca^++ indicator, Calcium Assay Kit (BD Biosciences; Catalog Number 640178. The fluorescent activity from all receptors were monitored by the fluorescent imager, FDSS 7000EX (Hamamatsu) over a span of 3 minutes. The change in Calcium flux was readily captured upon activation with the muscarinic orthosteric agonist, Carbachol.
(§2) CHO-K1 cells stably expressing the human cloned CHRM4 receptor (M4_CHO cells) were grown and maintained in a monolayer culture with F12/HAM (Life Technologies) supplemented with 10% Fetal Bovine Serum, 1X Pen-Strep, and 0.4 mg/mL Geneticin in a humidified atmosphere (5% CO2) at 37° C. The cultures were grown to 80-90% confluency in T150 flasks (Corning) and washed with 1×DPBS then lifted with 0.05% Trypsin (Life Technologies). The cells were harvested in growth media then spun (1K rpm, 3 minutes) and cryopreserved using Recovery Cell Culture Freezing Media (Gibco Technologies). Cells were stored in liquid nitrogen and thawed a day before the assay.
Prior to the day of the assay, stable M4_CHO cells were thawed and plated on 384 well black walled clear bottom TC treated plates (Greiner Cat #781091) at 12K cells/well using F12/HAM Media supplemented with 10% FBS (Life Technologies) and kept overnight in a humidified atmosphere (5% CO2) at 37° C. The next day, cells were loaded with 20 μL Ca^++ dye (BD Biosciences) using Loading Buffer (HBSS +Ca/+Mg, 20 mM HEPES, 2.5 mM Probenecid) and placed back in cell incubator for a minimum of 1 hour. After incubation, the dye was replaced with 45 μL Assay Buffer (HBSS −Ca/−Mg, 20 mM HEPES, 2.5 mM Probenecid) supplemented with 20 μM ATP (Sigma Aldrich) and kept at room temperature in the dark for 60 minutes before running on a cell imager. The FDSS 7000EX (Hamamatsu) was used to capture Ca^++ traces for a span of 3 minutes from cells treated with 11 point dose of compound in triplicate in order to generate dose response curves in agonist mode. All compounds were serially diluted in DMSO then prepared in Assay Buffer for Ca^++ flux studies. The dose response curves were generated from the average of triplicate wells obtained from each data point and used a non-linear regression of four parameter dose response algorithm. The Percent Activity (PA) was measured to EC100 of Carbachol.
(§3) If an Example was tested more than once in an assay, then the values below represent the geometric mean of the results from each independent experiment.

[2] = molecular target: T2, human cloned CHRM2 receptor (Homo sapiens, UniProt P08172); test: CHRM2 Ca++ Flux Assay (M2_CHO cells, agonist mode); assay type: cell-based; conditions: M2 CHO cells; for EC50: agonist mode, geometric mean if tested more than once, read-out: M2 FDSS EC50; for M2 FDSS PA %: Percent Activity (PA) measured to EC100 of Carbachol
T2 construct: expressed in transfected cells; host or cells: CHO-K1 (M2_CHO)
T2 sequence (P08172 1-466): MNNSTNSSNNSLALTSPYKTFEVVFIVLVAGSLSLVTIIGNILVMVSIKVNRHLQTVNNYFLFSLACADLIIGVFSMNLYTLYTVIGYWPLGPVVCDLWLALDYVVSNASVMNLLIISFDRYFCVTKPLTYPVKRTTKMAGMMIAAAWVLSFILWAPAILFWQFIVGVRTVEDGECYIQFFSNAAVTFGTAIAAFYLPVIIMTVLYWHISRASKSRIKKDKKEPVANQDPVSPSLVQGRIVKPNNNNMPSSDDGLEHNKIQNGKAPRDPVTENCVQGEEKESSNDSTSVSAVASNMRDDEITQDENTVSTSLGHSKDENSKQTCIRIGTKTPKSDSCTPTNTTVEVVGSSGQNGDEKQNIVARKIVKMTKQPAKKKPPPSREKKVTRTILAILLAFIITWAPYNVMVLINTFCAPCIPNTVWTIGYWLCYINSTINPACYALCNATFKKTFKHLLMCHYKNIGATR
Protocol: as §1
as §2, with “cloned CHRM2” for “cloned CHRM4”, “receptor (M2_CHO” for “receptor (M4_CHO”, “Serum, 1×Pen-Strep,” for “Serum, 1X Pen-Strep,”, “1×DPBS and” for “1×DPBS then”, “were” for “were harvested in growth media”, “and frozen” for “and cryopreserved”
Prior to the day of the assay, stable M2 CHO cells were thawed and plated on Greiner 384 well TC treated plate at a density of 12K cells/well and kept overnight in a humidified atmosphere (5% CO2) at 37° C. The following day, the cells were loaded with Ca^++ dye (BD Biosciences) using Loading Buffer (HBSS +Ca/+Mg, 20 mM HEPES, 2.5 mM Probenecid) and placed back in cell incubator for a minimum of 1 hour and maximum of 2 hours. After incubation, the dye was replaced with Assay Buffer (HBSS −Ca/−Mg, 20 mM HEPES, 2.5 mM Probenecid) supplemented with 20 μM ATP (Sigma Aldrich) and kept at room temperature for 60 minutes prior before running on cell imager. The FDSS 7000EX (Hamamatsu) was used to acquire Ca^++ traces from cells in response to compound treatment and the data was used to generate dose response curves in agonist mode. All compounds were serially diluted in DMSO then prepared in Assay Buffer for Ca^−+ flux studies. The dose response curves were generated from the average of triplicate wells obtained from each data point and used a non-linear regression of four parameter dose response algorithm. The Percent Activity (PA) was measured to EC100 of Carbachol.
as §3

| Compound | M4 FDSS PA % [1] | EC50 [1] | EC50 [2] | M2 FDSS PA % [2] |
| --- | --- | --- | --- | --- |
| CC(C)(O)[C@H]1C[C@H](Oc2ccc(F)cc2C2CCN([C@@H]3COC4(C3)CN(c3nnco3)C4)CC2)C1 (single isomer, unassigned) [Example 2V, 2-((1S,3r)-3-(2-(1-((S)-2-(1,3,4-oxadiazol-2-yl)-5-oxa-2-azaspiro[3.4]octan-7-yl)piperidin-4-yl)-4-fluorophenoxy)cyclobutyl)propan-2-ol or 2-((1R,3s)-3-(2-(1-((S)-2-(1,3,4-oxadiazol-2-yl)-5-oxa-2-azaspiro[3.4]octan-7-yl)piperidin-4-yl)-4-fluorophenoxy)cyclobutyl)propan-2-ol] | 75% | 94 nM | 1080 nM | 28% |
| CC(C)(O)[C@H]1C[C@H](Oc2ccc(F)cc2C2CCN([C@@H]3COC4(C3)CN(c3nnco3)C4)CC2)C1 (single isomer, unassigned) [Example 2W, 2-((1S,3r)-3-(2-(1-((S)-2-(1,3,4-oxadiazol-2-yl)-5-oxa-2-azaspiro[3.4]octan-7-yl)piperidin-4-yl)-4-fluorophenoxy)cyclobutyl)propan-2-ol or 2-((1R,3s)-3-(2-(1-((S)-2-(1,3,4-oxadiazol-2-yl)-5-oxa-2-azaspiro[3.4]octan-7-yl)piperidin-4-yl)-4-fluorophenoxy)cyclobutyl)propan-2-ol] | 70% | 87 nM | 3080 nM | 29% |
| C[C@H](Oc1ccc(F)cc1C1CCN([C@@H]2COC3(C2)CN(c2nnco2)C3)CC1)C1CCOCC1 (single isomer, unassigned) [Example 2Y, (S)-7-(4-(5-fluoro-2-((S)-1-(tetrahydro-2H-pyran-4-yl)ethoxy)phenyl)piperidin-1-yl)-2-(1,3,4-oxadiazol-2-yl)-5-oxa-2-azaspiro[3.4]octane or (S)-7-(4-(5-fluoro-2-((R)-1-(tetrahydro-2H-pyran-4-yl)ethoxy)phenyl)piperidin-1-yl)-2-(1,3,4-oxadiazol-2-yl)-5-oxa-2-azaspiro[3.4]octane] | 76% | 554 nM | 3330 nM | 35% |
| c1ccc([C@@H]2CCOC2)c(C2CCN([C@@H]3COC4(C3)CN(c3nnco3)C4)CC2)c1 (single isomer, unassigned) [Example 3A, (S)-2-(1,3,4-oxadiazol-2-yl)-7-(4-(2-((S)-tetrahydrofuran-3-yl)phenyl)piperidin-1-yl)-5-oxa-2-azaspiro[3.4]octane or (S)-2-(1,3,4-oxadiazol-2-yl)-7-(4-(2-((R)-tetrahydrofuran-3-yl)phenyl)piperidin-1-yl)-5-oxa-2-azaspiro[3.4]octane] | 91% | 83 nM | 1570 nM | 35% |
| c1ccc([C@@H]2CCOC2)c(C2CCN([C@@H]3COC4(C3)CN(c3nnco3)C4)CC2)c1 (single isomer, unassigned) [Example 3B, (S)-2-(1,3,4-oxadiazol-2-yl)-7-(4-(2-((S)-tetrahydrofuran-3-yl)phenyl)piperidin-1-yl)-5-oxa-2-azaspiro[3.4]octane or (S)-2-(1,3,4-oxadiazol-2-yl)-7-(4-(2-((R)-tetrahydrofuran-3-yl)phenyl)piperidin-1-yl)-5-oxa-2-azaspiro[3.4]octane] | 86% | 69 nM | 1500 nM | 31% |
| Fc1ccc([C@H]2CCOC2)c(C2CCN([C@@H]3COC4(C3)CN(c3nnco3)C4)CC2)c1 (single isomer, unassigned) [Example 3E, (S)-7-(4-(5-fluoro-2-((R)-tetrahydrofuran-3-yl)phenyl)piperidin-1-yl)-2-(1,3,4-oxadiazol-2-yl)-5-oxa-2-azaspiro[3.4]octane or (S)-7-(4-(5-fluoro-2-((S)-tetrahydrofuran-3-yl)phenyl)piperidin-1-yl)-2-(1,3,4-oxadiazol-2-yl)-5-oxa-2-azaspiro[3.4]octane] | 86% | 28 nM | 404 nM | 60% |
| Fc1ccc([C@H]2CCOC2)c(C2CCN([C@@H]3COC4(C3)CN(c3nnco3)C4)CC2)c1 (single isomer, unassigned) [Example 3F, (S)-7-(4-(5-fluoro-2-((R)-tetrahydrofuran-3-yl)phenyl)piperidin-1-yl)-2-(1,3,4-oxadiazol-2-yl)-5-oxa-2-azaspiro[3.4]octane or (S)-7-(4-(5-fluoro-2-((S)-tetrahydrofuran-3-yl)phenyl)piperidin-1-yl)-2-(1,3,4-oxadiazol-2-yl)-5-oxa-2-azaspiro[3.4]octane] | 80% | 23 nM | 406 nM | 49% |
| O[C@H]1CC[C@@H](c2ccc(F)cc2C2CCN([C@@H]3COC4(C3)CN(c3nnco3)C4)CC2)CC1 (single isomer, unassigned) [Example 3H, (1R,4s)-4-(2-(1-((S)-2-(1,3,4-oxadiazol-2-yl)-5-oxa-2-azaspiro[3.4]octan-7-yl)piperidin-4-yl)-4-fluorophenyl)cyclohexan-1-ol or (1S,4r)-4-(2-(1-((S)-2-(1,3,4-oxadiazol-2-yl)-5-oxa-2-azaspiro[3.4]octan-7-yl)piperidin-4-yl)-4-fluorophenyl)cyclohexan-1-ol] | 83.2% | 10 nM | 2460 nM | 30% |
